Literature values, collected in patent US20070020197A1, “Preparation of pharmaceutical compositions containing nanoparticles” (WARNER-LAMBERT COMPANY LLC, priority 2004, published 2007).

Conditions: mean particle size reduced from 4.15 μm to 0.45 μm

bioavailability change: doubling
SMILES: O=C(NC(=O)c1ccccc1[N+](=O)[O-])Nc1ccc(Oc2ncc(Br)cn2)c(Cl)c1 [HO-221]
